Results on 16 molecules are retold here after patent US9885713B2, “Diagnosis and treatment of mycobacteria infections” (priority 2013, dated 2018).

One assay concerns the target T1, Gp6 (Mycobacterium phage L5, UniProt Q05278, L15P).
T1 construct: pET-30a(+) vector-encoded N-terminal leader (additional residues up to the EcoRI site) (N); made in house; host or cells: E. coli BL21(DE3)
In words: Direct ESI-MS assay of carbohydrate binding. Also noted: species or system mycobacteriophage L5. The following applies: for Association constants (Ka) for Gp6: 25° C., pH 7.2, direct ESI-MS assay. How it is done: Chemically synthesized fragments of mycobacterial arabinans and phenolic glycolypids were used to test the carbohydrate binding ability of recombinant Gp6. Association constants (Ka) for Gp6 binding to carbohydrate ligands were measured using the direct electrospray ionization mass spectrometry (ESI-MS) assay. The assay is based on the direct detection and quantification of the abundance of ligand-bound and unbound protein ions in the gas phase. All binding measurements were carried out at 25° C. and pH 7.2 using a 9.4T ApexQe FTICR mass spectrometer (Bruker, Billerica, Mass.). ESI was performed in aqueous ammonium acetate (100 mM) solutions prepared from stock solutions of protein and oligosaccharide. The single chain variable fragment (scFv) of the monoclonal antibody Se155-4 was used as reference protein to distinguish specific from nonspecific ligand binding with the protein during the ESI-MS measurements.

Assay [1] relates to Mycobacterium avium subsp. paratuberculosis ATCC 19851. In words: Cell binding assay: protein immobilized on gold surface, capture by SEM and fluorescence microscopy. Conditions: protein immobilized on gold surface, 20 μg/ml (Gp6 also 40 μg/ml). An excerpt: (§1) In order to assess mycophage and mycophage RBPs for their use as probes of MAP infection, Gp-10 and Gp-6 were immobilized using an established protocol (Singh et. al. Biosens. Bioelect. 26 131 (2010) and used for the specific bacterial capture. Gold Surfaces were modified by cysteamine hydrochloride followed by activation using 2% gluteraldehyde. The recombinant proteins Gp-10, Gp-6 and Gp-31 were immobilized over the surfaces in order to capture the host bacteria Mycobacterium avium subsp. paratuberculosis ATCC 19851 and Mycobacterium smegmatis mc^2155. Bacterial capture was confirmed by fluorescence microscopy and Scanning Electron Microscopy (SEM). Nonspecific attachment was prevented by using bovine serum albumin (BSA) as the blocking layer. A negative control was run in parallel where a similar gold surface was treated with all reagents, but they were not exposed to the recombinant phage proteins.
(§2) Proteins were immobilized onto cysteamine covered gold surfaces that were activated with glutaraldehyde according to the previously described protocol where RBP samples were used instead of whole phage particles. Briefly, the gold substrates were fabricated using piranha cleaned silicon substrates by sputtering a 25 nm thick gold layer. The gold substrates were sonicated in acetone, isopropanol, ethanol and MilliQ (Millipore) water for 5 min each prior to their use (Branson Ultrasonics 1510, 40 kHz frequency). The gold substrates were incubated overnight at 40° C. in a 50 mM solution of cysteamine hydrochloride (Sigma-Aldrich). The cysteamine self assembled monolayer (SAM) substrates were modified by 2% glutaraldehyde (Sigma-Aldrich) for 1 hr at room temperature and washed twice in PBS. These modified substrates were incubated in a 20 μg/ml solution of Gp10 (or Gp6) in PBS overnight at […]. The negative control substrate was incubated in PBS only. To block nonspecific binding of bacteria, the substrates were incubated in 1 mg/ml of bovine serum albumin (Sigma-Aldrich) and were washed twice in PBS. The protein covered substrates were exposed to 10^9 cfu/ml of mycobacterial cells in PBS for 1 hr at room temperature. The immobilized surfaces were washed in 0.05 Tween 20 (Sigma-Aldrich) before analysis. For fluorescence microscopy, the bacterial cells were stained with 50 μM resazurin (Sigma-Aldrich) for 20 min before exposure to the substrates covered with the immobilized proteins.
(§3) Bacterial cell binding to the gold surface covered with the immobilized protein was assessed as described previously. Scanning electron microscopy (SEM) and fluorescent microscopy (FM) were used to estimate the number of bacterial cells bound to the surfaces. The samples were fixed with 2% glutaraldehyde for 2 hrs at room temperature followed by a gradient of ethanol from 50% to 100% before SEM. Finally the samples were dried by nitrogen gas. SEM imaging was performed using a Hitachi S-4800/LEO 1430 microscope. Cells were prestained using 50 μM of resazurin stain (Sigma-Aldrich) for the FM-based binding assay. An Olympus IX81 microscope equipped with a FITC filter and a Roper Scientific Cool-Snaps HQ CCD Camera were Used to Record the FM Images. ImageJ Software (USA NIH) was used to analyze the microscopy images. Average numbers of cells bound to the surface are indicated on the basis of the assessment of the cell number, fields of view, and using 8 gold covered chips per test.

The test system of assay [2] is Mycobacterium smegmatis mc^2155. The assay is described as above. The following applies: protein immobilized on gold surface, 20 μg/ml.
Description: as §1, §2, §3

T1 sequence (Q05278 other isoform, or with tags, fused parts or gaps L15P): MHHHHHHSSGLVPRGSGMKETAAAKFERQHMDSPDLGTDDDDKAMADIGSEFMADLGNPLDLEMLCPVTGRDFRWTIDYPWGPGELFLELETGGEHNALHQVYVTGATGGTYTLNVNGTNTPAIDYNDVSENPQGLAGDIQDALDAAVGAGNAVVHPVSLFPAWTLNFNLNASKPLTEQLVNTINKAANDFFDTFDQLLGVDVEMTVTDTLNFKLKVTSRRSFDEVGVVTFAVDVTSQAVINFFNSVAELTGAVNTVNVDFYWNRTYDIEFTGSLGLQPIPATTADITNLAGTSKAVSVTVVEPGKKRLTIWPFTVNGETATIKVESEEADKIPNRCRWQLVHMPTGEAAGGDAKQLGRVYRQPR

For the molecule “6-O-CH3-β-Glcp-(1→4)-2,3-di-O-CH3-α-Rhap-(1→2)-3-O-CH3-α-RhapOPMP [compound 14]”, the “Association constants (Ka) for Gp6” value at Gp6 is listed as “NB^3”.

The Kd is the equilibrium constant for the complex coming apart. A higher Kd goes with lower affinity. At Gp6, `O=C(NCCCCCCCCO[C@H]1O[C@H](CO[C@H]2O[C@H](CO)[C@@H](O[C@H]3O[C@H](CO)[C@@H](O)[C@@H]3O[C@@H]3O[C@H](CO)[C@@H](O)[C@@H]3O)[C@@H]2O)[C@@H](O)[C@@H]1O)C(F)(F)F` [compound 7, β-Araf-(1→2)-α-Araf-(1→3)-α-Araf-(1→5)-α-Araf-octyl-NHCOCF3] had a Kd of 909 µM.

On to `COc1ccc(O[C@@H]2O[C@@H](C)[C@H](O)[C@@H](O[C@@H]3O[C@@H](C)[C@H](O)[C@@H](O[C@@H]4O[C@@H](C)[C@@H](OC)[C@@H](O)[C@@H]4OC)[C@H]3O)[C@H]2O)cc1` [compound 11, 2,4-di-O-CH3-α-Fucp-(1→3)-α-Rhap(1→3)-α-Rhap-OPMP], for which the Kd on Gp6 was 333 µM.

As to `COc1ccc(OC2OC(C)C(O)C(OC3OC(C)C(O)C(O)C3O)C2OC)cc1` (stereo not drawn) [compound 15, α-Rhap-(1→3)-2-O-CH3-α-RhapOPMP], the “Association constants (Ka) for Gp6” value on Gp6 is reported as “NB^3”.

Take `O=C(NCCCCCCCCO[C@H]1O[C@H](CO[C@H]2O[C@H](CO[C@H]3O[C@H](CO)[C@@H](O)[C@@H]3O[C@@H]3O[C@H](CO)[C@@H](O)[C@@H]3O)[C@@H](O[C@H]3O[C@H](CO)[C@@H](O)[C@@H]3O[C@@H]3O[C@H](CO)[C@@H](O)[C@@H]3O)[C@@H]2O)[C@@H](O)[C@@H]1O)C(F)(F)F` [compound 3, β-Araf-(1→2)-α-Araf-(1→5)[β-Araf-(1→2)-α-Araf-(1→3)]-α-Araf-(1→5)-α-Araf-octyl-NHCOCF3]: the Kd at Gp6 was 278 µM.

Regarding `O=C(NCCCCCCCCO[C@H]1O[C@H](CO[C@H]2O[C@H](CO[C@H]3O[C@H](CO)[C@@H](O)[C@@H]3O[C@@H]3O[C@H](CO)[C@@H](O)[C@@H]3O)[C@@H](O)[C@@H]2O)[C@@H](O)[C@@H]1O)C(F)(F)F` [compound 4, β-Araf-(1→2)-α-Araf-(1→5)-α-Araf-(1→5)-α-Araf-octyl-NHCOCF3], the “Association constants (Ka) for Gp6” value on Gp6 is “NB^3”.

Take `O=C(NCCCCCCCCO[C@H]1O[C@H](CO[C@H]2O[C@H](CO[C@H]3O[C@H](CO)[C@@H](O)[C@@H]3O)[C@@H](O[C@H]3O[C@H](CO)[C@@H](O)[C@@H]3O)[C@@H]2O)[C@@H](O)[C@@H]1O)C(F)(F)F` [compound 6, α-Araf-(1→5)-[α-Araf-(1→3)]-α-Araf-(1→5)-α-Araf-octyl-NHCOCF3]: the Kd on Gp6 is 417 µM.

Take `O=C(NCCCCCCCCO[C@H]1O[C@H](CO[C@H]2O[C@H](CO[C@H]3O[C@H](CO[C@H]4O[C@H](CO)[C@@H](O)[C@@H]4O)[C@@H](O)[C@@H]3O)[C@@H](O)[C@@H]2O)[C@@H](O)[C@@H]1O)C(F)(F)F` [compound 8, α-Araf-(1→5)-α-Araf-(1→5)-α-Araf-(1→5)-a-Araf-octyl-NHCOCF3]: the Kd at Gp6 is 145 µM.

The molecule `O=C(NCCCCCCCCO[C@H]1O[C@H](CO[C@H]2O[C@H](CO[C@H]3O[C@H](CO)[C@@H](O)[C@@H]3O[C@@H]3O[C@H](CO[C@H]4O[C@H](CO)[C@@H](O)[C@H](O)[C@@H]4O[C@H]4O[C@H](CO)[C@@H](O)[C@H](O)[C@@H]4O[C@H]4O[C@H](CO)[C@@H](O)[C@H](O)[C@@H]4O)[C@@H](O)[C@@H]3O)[C@@H](O)[C@@H]2O)[C@@H](O)[C@@H]1O)C(F)(F)F` [compound 9, α-Manp-(1→2)-α-Manp-(1→2)-α-Manp-(1→5)-β-Araf-(1→2)-α-Araf-(1→5)-α-Araf-(1→5)-α-Araf-octyl-NHCOCF3] gave a Kd on Gp6 of 385 µM.

`COC[C@H]1O[C@@H](O[C@@H]2[C@@H](OC)[C@@H](OC)[C@H](O[C@H]3[C@H](Oc4ccc(OC)cc4)O[C@@H](C)[C@H](O)[C@H]3OC)O[C@H]2C)[C@H](O)[C@@H](OC)[C@@H]1O` [compound 13, 3,6-di-O-CH3-β-Glcp-(1→4)-2,3-di-O-CH3-α-Rhap-(1→2)-3-O-CH3-α-RhapOPMP] showed a Kd at Gp6 of 417 µM.

With `COc1ccc(O[C@@H]2O[C@@H](C)[C@H](O)[C@@H](O[C@@H]3O[C@@H](C)[C@H](O)[C@@H](O[C@@H]4O[C@@H](C)[C@@H](OC)[C@@H](OC)[C@@H]4OC)[C@H]3O)[C@H]2OC)cc1` [compound 10, 2,3,4-tri-O-CH3-α-Fucp-(1→3)-α-Rhap(1→3)-2-O-CH3-α-RhapOPMP], on Gp6, binding was put at a Kd of 1000 ± 500 µM.

Consider `O=C(NCCCCCCCCO[C@H]1O[C@H](CO[C@H]2O[C@H](CO[C@H]3O[C@H](CO)[C@@H](O)[C@@H]3O[C@@H]3O[C@H](CO[C@H]4O[C@H](CO)[C@@H](O)[C@H](O)[C@@H]4O[C@H]4O[C@H](CO)[C@@H](O)[C@H](O)[C@@H]4O)[C@@H](O)[C@@H]3O)[C@@H](O)[C@@H]2O)[C@@H](O)[C@@H]1O)C(F)(F)F` [compound 2, α-Manp-(1→2)-α-Manp-(1→5)-β-Araf-(1→2)-α-Araf-(1→5)-α-Araf-(1→5)-α-Araf-octyl-NHCOCF3], for which the dissociation constant (Kd) at Gp6 was 227 µM.

In the case of `COc1ccc(O[C@@H]2O[C@@H](C)[C@H](O)[C@@H](O[C@@H]3O[C@@H](C)[C@H](O)[C@@H](O[C@@H]4O[C@@H](C)[C@@H](OC)[C@@H](OC)[C@@H]4OC)[C@H]3O)[C@H]2O)cc1` [compound 12, 2,3,4-tri-O-CH3-α-Fucp-(1→3)-α-Rhap(1→3)-α-RhapOpPMP], binding at Gp6 was characterised by a dissociation constant (Kd) of 286 µM.

At Gp6, `O=C(NCCCCCCCCO[C@H]1O[C@H](CO[C@H]2O[C@H](CO[C@H]3O[C@H](CO)[C@@H](O)[C@@H]3O[C@@H]3O[C@H](CO[C@H]4O[C@H](CO)[C@@H](O)[C@H](O)[C@@H]4O)[C@@H](O)[C@@H]3O)[C@@H](O)[C@@H]2O)[C@@H](O)[C@@H]1O)C(F)(F)F` [compound 1, α-Manp-(1→5)-β-Araf-(1→2)-α-Araf-(1→5)-α-Araf-(1→5)-α-Araf-octyl-NHCOCF3] showed a Kd of 256 µM.

Molecule `O=C(NCCCCCCCCO[C@H]1O[C@H](CO[C@H]2O[C@H](CO[C@H]3O[C@H](CO)[C@@H](O)[C@@H]3O)[C@@H](O)[C@@H]2O)[C@@H](O)[C@@H]1O)C(F)(F)F` [compound 5, α-Araf-(1→5)-α-Araf-(1→5)-α-Araf-octyl-NHCOCF3] showed a Kd on Gp6 of 132 µM.

B1: Gp-31: recombinant His-tagged Gp-31 protein of mycobacteriophage L5 (SEQ ID NO: 5) (protein)
chain: MHHHHHHSSGLVPRGSGMKETAAAKFERQHMDSPDLGTDDDDKAMADIGSEFVTYPTNPLEAIGADGAFEIGGGDWSFGQDYTEQAIRALFTMPAVTMENALGLLEEHLLKLPLEALQGFKDMIPDWVEGAFDTVTGAVQAIMNALQDGPLFLKFAEFQLFLQRLLNNPAEVIGEIPQTLIDGLQDALNTVNNTIQTIVDMLLQALGITPEGELIDRIFDLSDEMEWLQTAASNAATGIQDTWNKFWGALTGRVPDQDQTVAEPAERIGELAGTTSANSSAIAELQRRLDNQQNAGGVAGGDDFERLNISGWDIRYSNGSSGRGYYRADGHQLVWMDEGNQQNTATFVRTNPADEKTATDYQKMTLVVGTISGEVQTVFPPQGGSHTRLWVRVNDNAPTVGITDGVFVEIGGVSKAQIGYRRNGNDTFVGSMVDCTWGAGSIFALTAGTANGAEKFEVSKNGPVLATWSDDGVVSAMGANYRRWGWEGQARNRNLGQGTPNSVTRVTITDNDPTGAGGGAVNVGGDVVGVLPIENGGTGASTASAARTALGIDDLVEDMSDVVRGSVEGLPLIPKIWVGTEAQYTALATKDQSTLYFRTA
modifications: His tag
For B1, in assay [1], the “capture/binding of MAP cells (in words)” value is “no significant bacterial capture”. Moreover, the “capture/binding of M. smegmatis cells (in words)” value in assay [2] is “no significant bacterial capture”.
